Consider 13 compounds from US10836728B2, “Substituted 3-dialkylaminomethyl-piperidin-4-yl-benzamides and methods of making and using same” (MEBIAS DISCOVERY, INC., priority 2017, dated 2020).

The target in data set [1] is T1, human OPRM1 (μ, MOR) (Homo sapiens (Human), UniProt P35372). Description: cell-based. The format is cell-based. As to conditions: for Emax: OPRM1, read-out: cAMP Emax; for EC50: PathHunter human OPRM1 Arrestin CHO-K1 cell line, read-out: cAMP EC50. The procedure: G-protein signaling was measured via second messenger cAMP modulation. Detection of cAMP modulation was accomplished in the PathHunter human OPRM1 (μ, MOR) Arrestin CHO-K1 cell line using the Dynamic2 cAMP Kit from Cisbio.

The target in data set [2] is T1, human OPRM1 (μ, MOR). Description: cell-based. The data set is classed as cell-based. As to conditions: for Emax: OPRM1, read-out: β-Arrestin Emax; for EC50: PathHunter human OPRM1 Arrestin CHO-K1 cell line, read-out: β-Arrestin EC50. Here is the method: The technology is based on Enzyme Fragment Complementation (EFC) with β-galactosidase (β-Gal) as the reporter. […] EA is fused to β-arrestin-2, and ED is fused to the C-terminus of the GPCR of interest. When a ligand binds and the GPCR is activated, β-arrestin-2 is recruited to the receptor resulting in an ED/EA complementation, restoring β-Gal activity, which is measured using chemiluminescence. For this assay, the PathHunter human OPRM1 (μ, MOR) Arrestin CHO-K1 cell line was used.

Data set [3] deals with T2, MOR (Homo sapiens (Human), UniProt P35372). The data set is classed as cell-based. As to conditions: for ΔRA of compound: β-arrestin vs cAMP, from EC50 and Emax. Here is the method:
In certain embodiments, the ability of a compound to activate G-protein or β-arrestin is not an on/off switch for a given pathway, but rather a continuous function. To capture this, each compound is measured for activity in cell assays that are linked to β-arrestin recruitment and G-protein signaling. By comparing the activity between these two measures (accounting for both EC50 and maximal response reached, Emax) a relative activity (RA) value is determined.
In the case of MOR it is desirable to have high activation of the G-protein pathway while reducing activation of β-arrestin.

Data set [4] concerns tail flick response. Kind of data set: Rat tail flick nociceptive pain model. The data set is classed as in vivo. As to conditions: SC. Here is the method:
In rodents, the tail flick response to radiant heat is commonly used as a model to detect potentially useful analgesic agents.
Procedurally, the time (seconds) required to elicit a tail flick response induced by focused radiant heat is measured as the pain threshold in groups of 8 Sprague-Dawley (SD) male rats weighing 110±20 g. Prolongation by 50 percent or more (≥50) of the time required to elicit a tail flick response 15 and 30 minutes following administration of test substance indicates possible analgesic activity. Also, one-way ANOVA followed by Dunnett's test is applied for comparison between vehicle control and treatment groups.

Data set [5] has as its system intestinal transit. Description: Gastrointestinal motility (charcoal transit). To be noted: rat, SC. Here is the method: At 30 minutes post subcutaneous dosing, the animals were given a suspension of 5% charcoal in 10% gum arabic solution (2 ml/animal p.o.) and sacrificed 15 minutes later. The intestine was removed, and the length of the gut in cm (GL) as well as extent of charcoal movement from the pylorus to the beginning of the charcoal column in cm (CP) was measured.
Intestinal transit (IT) was calculated as IT=(CP/GL)×100%. A 30% or more (30) increase or decrease intestinal transit (IT), relative to the vehicle control group, was considered significant. The values in animals treated with test compounds compared with vehicle control group were also analyzed by using one-way ANOVA followed by Dunnett's test. Differences are considered statistically significant at P<0.05.

Data set [6] deals with place preference. Kind of data set: Conditioned place preference. As to conditions: rat, SC.
Description: Although a number of different designs and apparatuses are used in this model, the basic characteristics of this task involve the association of a particular environment with drug treatment, followed by the association of a different environment with the absence of the drug (i.e., the drug's vehicle). A common variation of this design consists of a three-compartment chamber with the outer compartments being designed to have different characteristics (e.g., white vs. black walls, pine vs. corn bedding, horizontal grid vs. cross-grid flooring). […] On the following day, the rat is injected with the drug's vehicle and then placed in the opposite compartment. […] Afterward, a test session is conducted, which consists of placing the animal in the center compartment and then, after opening the gates to both of the outer compartments, recording the time the animal spends in each of the outer compartments during the session.
In certain embodiments, there are three days of adaptation where any preferences are assessed. Then, compartment assignments for drug or saline are based on any existing preferences. […] There are 8 days of training followed by the test day when both compartments are accessible and the computer counts how much time is spent in the respective compartment.
Data set [7] concerns sedation. Kind of data set: Accelerating RotaRod (sedation). As to conditions: rat, SC. On the technique in general: In the rotarod test animals must keep their balance on a rotating rod.
Data set [8] in a line: Respiratory depression test (O2 partial pressure). To be noted: rat, SC, at 30 minutes, vehicle 96 mm Hg.
Data set [9] addresses T2, MOR. As to conditions: vs morphine; cited from earlier work.
Data set [10] concerns the target T2, MOR. As to conditions: cell-based assays; cited from earlier work.
For data set [11] the following is noted: patients following bunionectomy; cited from earlier work.
The conditions of data set [12]: healthy volunteers; cited from earlier work.

For orientation: Emax means the size of the effect at its maximum, as opposed to the concentration needed. As a reminder, the EC50 is the concentration at which the effect is half-maximal.

Read-outs that look alike come from different tables or passages of the source.

Turning to `CN(C)CC1CN(CCc2ccsc2)CCC1(O)c1cccc(C(N)=O)c1` (centres unmarked) [(15), 3-(3-((Dimethylamino)methyl)-4-hydroxy-1-(2-(thiophen-3-yl)ethyl)piperidin-4-yl)benzamide], in data set [1], the Emax turned out to be 95% and the concentration for a half-maximal effect (EC50) is 67 nM. Moreover, in data set [2], the Emax was below 10% and the EC50 is above 100000 nM.
As to `CN(C)CC1CN(CCc2ccc(O)cc2)CCC1(O)c1cccc(C(N)=O)c1` (centres unmarked) [(18), 3-(3-((Dimethylamino)methyl)-4-hydroxy-1-(4-hydroxyphenethyl)piperidin-4-yl)benzamide], in data set [1], the Emax was 103% and the EC50 was determined as 160 nM. In [2], the Emax amounted to 24% and the EC50 was determined as 3100 nM. Further, in data set [3], the “Bias Factor (ΔRA of compound relative to ΔRA of DAMGO) × 10” value is reported as −3.73 and the ΔRA of compound is listed as −1.91.
In the case of `CN(C)C[C@H]1CN(CCc2ccsc2)CC[C@]1(O)c1cccc(C(N)=O)c1` [(41a), 3-((3S,4R)-3-((Dimethylamino)methyl)-4-hydroxy-1-(2-(thiophen-3-yl)ethyl)piperidin-4-yl)benzamide], the “Dose to reach the ED80 of morphine in rat tail flick” value in [4] is 5 mg/kg. Also, the “Reduction in transit relative to vehicle” value in data set [5] (5 mg/kg) and in data set [5] (20 mg/kg) was “no significant reduction in transit” throughout. In addition, the “Preference for drug chamber over saline chamber” value in data set [6] (20 mg/kg) is reported as “no preference for the (41a) chamber over the saline chamber”. Besides, the “Sedation, accelerating RotaRod” value in [7] (5 mg/kg) and in data set [7] (20 mg/kg) was “no sedation” each time. For the same compound, the O2 partial pressure entry in data set [8] (5 mg/kg) and in [8] (20 mg/kg) was “the same O2 partial pressure as vehicle” each time.
On to `COc1ccc(CCN2CCC(O)(c3cccc(C(N)=O)c3)C(CN(C)C)C2)cc1` (centres unmarked) [(17), 3-(3-((Dimethylamino)methyl)-4-hydroxy-1-(4-methoxyphenethyl)piperidin-4-yl)benzamide], for which the Emax in [1] was 84%; in data set [2], below 10%. In addition, the figures for the EC50 in data set [1] and in data set [2] were 467 nM and above 100000 nM, respectively.
For the compound `CN(C)CC1CN(Cc2ccc(F)cc2Cl)CCC1(O)c1cccc(C(N)=O)c1` (centres unmarked) [(6), 3-[1-(2-Chloro-4-fluoro-benzyl)-3-dimethylaminomethyl-4-hydroxy-piperidin-4-yl]-benzamide], in [1], the Emax came out at 107% and the EC50 worked out at 102 nM. Besides, in data set [2], the Emax was determined as 40% and the EC50 is 2560 nM. In addition, in data set [3], the “Bias Factor (ΔRA of compound relative to ΔRA of DAMGO) × 10” value was −2.89 and the ΔRA of compound is −1.83.
For the compound `CN(C)CC1CN(CCc2ccccc2)CCC1(O)c1cccc(C(N)=O)c1` (centres unmarked) [(9), 3-(3-Dimethylaminomethyl-4-hydroxy-1-phenethyl-piperidin-4-yl)-benzamide], in data set [1], the Emax was 118% and the EC50 is 34 nM. Further, in [2], the Emax is 18% and the EC50 came out at 830 nM. Besides, in data set [3], the “Bias Factor (ΔRA of compound relative to ΔRA of DAMGO) × 10” value is reported as −6.76 and the ΔRA of compound is reported as −2.22.
For the compound `CN(C)C[C@@H]1CN(Cc2ccc(F)cc2Cl)CC[C@@]1(O)c1cccc(C(N)=O)c1` (single isomer, unassigned; ent-b) [Ent-B-syn-(6), Ent-B-syn 3-(1-(2-chloro-4-fluorobenzyl)-3-((dimethylamino)methyl)-4-hydroxypiperidin-4-yl)benzamide], in [1], the “cAMP Emax” value is reported as 111% and the EC50 is 463 nM. Moreover, in [2], the “β-Arrestin Emax” value was 20% and the EC50 stood at 3670 nM. Further, in [3], the “Bias Factor (ΔRA of compound relative to ΔRA of DAMGO) × 10” value is given as −1.06 and the ΔRA of compound is −1.65.
For `CN(C)CC1CN(Cc2ccsc2)CCC1(O)c1cccc(C(N)=O)c1` (centres unmarked) [(11), 3-(3-Dimethylaminomethyl-4-hydroxy-1-thiophen-3-ylmethyl-piperidin-4-yl)-benzamide], in [1], the Emax came out at 112% and the EC50 was found to be 550 nM. For the same compound, in [2], the Emax came out at 37% and the EC50 came out at 10700 nM. In [3], the “Bias Factor (ΔRA of compound relative to ΔRA of DAMGO) × 10” value is recorded as −2.31 and the ΔRA of compound is reported as −1.77.
As for `CN(C)C[C@H]1CN(CCCc2ccc(F)cc2Cl)CC[C@]1(O)c1cccc(C(N)=O)c1` [(23a), 3-((3S,4R)-1-(3-(2-Chloro-4-fluorophenyl)propyl)-3-((dimethylamino)methyl)-4-hydroxypiperidin-4-yl)benzamide], in [4], the “Dose to reach the ED80 of morphine in rat tail flick” value amounted to 4.5 mg/kg. For the same compound, the “Reduction in transit relative to vehicle” value in data set [5] (4.5 mg/kg) was “no significant reduction in transit”; in data set [5] (18 mg/kg), “small reduction in transit”. In addition, the “Preference for drug chamber over saline chamber” value in data set [6] (18 mg/kg) is “no preference for the (23a) chamber over the saline chamber”. Moreover, the “Sedation, accelerating RotaRod” value in data set [7] (4.5 mg/kg) and in data set [7] (18 mg/kg) was “no sedation” each time. The O2 partial pressure entry in data set [8] (4.5 mg/kg) and in data set [8] (18 mg/kg) was “the same O2 partial pressure as vehicle” throughout.
On to `COc1ccsc1CNCC[C@@]1(c2ccccn2)CCOC2(CCCC2)C1` [oliceridine, N-[(3-methoxythiophen-2-yl)methyl]-2-[(9R)-9-pyridin-2-yl-6-oxaspiro[4.5]decan-9-yl]ethanamine], for which the “G-protein signaling Emax” value in [9] is 83%. Besides, the “β-arrestin recruitment Emax” value in data set [10] was 14%. Besides, the Level of analgesia entry in data set [11] is recorded as “higher level of analgesia”. Also, the “On-target adverse effects (such as nausea, and decrease in respiratory drive)” value in [12] is listed as “decreased on-target adverse effects”.
Regarding `C[C@@H](NC(=O)[C@@H](N)Cc1ccc(O)cc1)C(=O)NCC(=O)N(C)[C@@H](Cc1ccccc1)C(=O)NCCO` [DAMGO, H-Tyr-D-Ala-Gly-NMe-Phe-Gly-OH, reference compound], the Emax in data set [2] stood at 98%.
Turning to `CN(C)CC1CN(CCCc2ccccc2)CCC1(O)c1cccc(C(N)=O)c1` (centres unmarked) [(20), 3-[3-Dimethylaminomethyl-4-hydroxy-1-(3-phenyl-propyl)-piperidin-4-yl]-benzamide], in data set [1], the Emax stood at 103% and the EC50 came out at 10 nM. Also, in [2], the Emax stood at 14% and the EC50 amounted to 270 nM. In data set [3], the “Bias Factor (ΔRA of compound relative to ΔRA of DAMGO) × 10” value is −7.37 and the ΔRA of compound is −2.28.
As for `CN(C)C[C@H]1CN(Cc2ccc(F)cc2Cl)CC[C@]1(O)c1cccc(C(N)=O)c1` (single isomer, unassigned; ent-a) [Ent-A-syn-(6)], in data set [1], the “cAMP Emax” value was determined as 132% and the EC50 amounted to 163 nM. For the same compound, in data set [2], the “β-Arrestin Emax” value is 60% and the EC50 was 3170 nM. Also, in [3], the “Bias Factor (ΔRA of compound relative to ΔRA of DAMGO) × 10” value is reported as −0.92 and the ΔRA of compound is reported as −1.63.
